Results on 31 compounds are retold here after patent EP2776398B1, “SUBSTITUTED PYRAZOLYL-BASED UREA DERIVATIVES AS VANILLOID RECEPTOR LIGANDS” (Medifron DBT Inc., priority 2011, dated 2013).

What is called inhibition is how much of the control response was suppressed. What is called Ki is a measure of affinity in units of concentration, obtained from inhibition or displacement.

T1 sequence (Q8NER1 whole entry): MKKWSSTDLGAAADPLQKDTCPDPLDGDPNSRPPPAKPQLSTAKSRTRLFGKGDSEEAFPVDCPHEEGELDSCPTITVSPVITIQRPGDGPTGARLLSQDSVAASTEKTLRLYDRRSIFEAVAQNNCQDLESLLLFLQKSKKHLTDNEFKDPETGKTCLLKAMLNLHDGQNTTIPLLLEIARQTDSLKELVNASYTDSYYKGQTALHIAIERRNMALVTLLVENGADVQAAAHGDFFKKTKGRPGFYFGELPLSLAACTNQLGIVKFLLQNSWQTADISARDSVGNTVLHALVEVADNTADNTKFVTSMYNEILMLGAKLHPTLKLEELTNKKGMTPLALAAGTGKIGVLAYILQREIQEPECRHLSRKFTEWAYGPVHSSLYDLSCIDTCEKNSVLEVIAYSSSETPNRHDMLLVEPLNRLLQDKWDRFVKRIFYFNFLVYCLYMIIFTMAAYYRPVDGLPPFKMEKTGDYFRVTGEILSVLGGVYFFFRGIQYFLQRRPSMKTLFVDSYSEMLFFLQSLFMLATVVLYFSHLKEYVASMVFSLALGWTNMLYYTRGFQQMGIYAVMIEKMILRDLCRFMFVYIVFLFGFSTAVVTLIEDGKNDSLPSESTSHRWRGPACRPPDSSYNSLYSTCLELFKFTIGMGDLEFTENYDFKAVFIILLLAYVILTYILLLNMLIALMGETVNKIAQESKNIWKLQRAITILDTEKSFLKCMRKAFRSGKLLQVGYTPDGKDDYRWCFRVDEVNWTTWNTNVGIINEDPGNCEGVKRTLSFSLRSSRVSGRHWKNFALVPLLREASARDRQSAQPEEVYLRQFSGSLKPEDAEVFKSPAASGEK

The first test addresses T1, vanilloid receptor 1 (VR1/TRPV1 receptor) (Homo sapiens, UniProt Q8NER1).
T1 construct: expressed in transfected cells; host or cells: CHO K1 cells (ECACC), stably transfected
Kind of test: Functional testing on vanilloid receptor 1: FLIPR Ca2+ influx assay against capsaicin (Cap) in transfected CHO K1 cells (pharmacological method II). On Ki: 100 nM capsaicin. As to conditions: @ 1µM; human VR1 in CHO K1 cells; capsaicin; relative to maximum inhibition with 10 µM capsazepine; read-out: inhibition (as a percentage), printed in column (f) Ki (human being) [nM] Cap. The format is cell-based. Further details: key to (f) Ki (human being) [nM] Cap: agonist classification: AG = agonist.
Description: […]
With `CC(C(=O)NCc1cc(C(C)(C)C)nn1-c1ccc(F)cc1)c1ccc(COCCO)c(F)c1` (stereo not shown) [A124, N-[[5-tert-Butyl-2-(4-fluorophenyl)-2H-pyrazol-3-yl]-methyl]-2-[3-fluoro-4-(2-hydroxy-ethoxy-methyl)-phenyl]-propionamide], the inhibition at 1 µM was 33%.

Still in this test, the particulars now being: @ 5µM; human VR1 in CHO K1 cells; capsaicin; relative to maximum inhibition with 10 µM capsazepine; read-out: inhibition (as a percentage), printed in column (f) Ki (human being) [nM] Cap.
`CC(C)(C)c1cc(CNC(=O)Nc2ccc(C(O)(CO)CO)cc2)n(-c2cccc(Cl)c2)n1` [A159, 1-[[5-tert-Butyl-2-(3-chlorophenyl)-2H-pyrazol-3-yl]-methyl]-3-[4-[1,2-dihydroxy-1-(hydroxymethyl)-ethyl]-phenyl]-urea]: the inhibition at 5 µM worked out at 24%.
Still for that read-out and setting: as for `O=C(NCc1cc(C(F)(F)F)nn1-c1cccc(Cl)c1)Nc1ccc(C(CO)CO)c(F)c1` [A153, 1-[[2-(3-Chlorophenyl)-5-(trifluoromethyl)-2H-pyrazol-3-yl]-methyl]-3-[3-fluoro-4-[2-hydroxy-1-(hydroxymethyl)-ethyl]-phenyl]-urea], the figure is 50%.
In the case of `N#Cc1cccc(-n2nc(C(F)(F)F)cc2CNC(=O)Nc2ccc(CO)c(F)c2)c1` [A85, 1-[[2-(3-Cyano-phenyl)-5-(trifluoromethyl)-2H-pyrazol-3-yl]-methyl]-3-[3-fluoro-4-(hydroxymethyl)-phenyl]-urea], the inhibition at 5 µM was 53%.

The same test, now with this note: human VR1 in CHO K1 cells; AG printed instead of a Ki.
For the compound `CC(C(=O)NCc1cc(C(C)(C)C)nn1-c1cccc(Cl)c1)c1ccc(C(O)CO)c(F)c1` (stereo not shown) [A145, N-[[5-tert-Butyl-2-(3-chlorophenyl)-2H-pyrazol-3-yl]-methyl]-2-[4-(1,2-dihydroxy-ethyl)-3-fluoro-phenyl]-propionamide], the “(f) Ki (human being) [nM] Cap: agonist classification” value is reported as “AG”.

Staying with this test, now noted: read-out: (f) Ki (human being) [nM] Cap.
Consider `O=C(NCc1cc(C(F)(F)F)nn1-c1ccc(Cl)cc1)Nc1ccc(CO)c(F)c1` [A60, 1-[[2-(4-Chlorophenyl)-5-(trifluoromethyl)-2H-pyrazol-3-yl]-methyl]-3-[3-fluoro-4-(hydroxymethyl)-phenyl]-urea], for which the Ki came to 10 nM.
Take `COc1ccc(-n2nc(C(F)(F)F)cc2CNC(=O)Nc2ccc(CO)c(F)c2)cc1F` [A95, 1-[3-Fluoro-4-(hydroxymethyl)-phenyl]-3-[[2-(3-fluoro-4-methoxy-phenyl)-5-(trifluoromethyl)-2H-pyrazol-3-yl]-methyl]-urea]: the Ki came to 13 nM.
As to `CC(C(=O)NCc1cc(C2CC2)nn1-c1cccc(Cl)c1)c1ccc(CO)c(F)c1` (stereo not shown) [A31, N-[[2-(3-Chlorophenyl)-5-cyclopropyl-2H-pyrazol-3-yl]-methyl]-2-[3-fluoro-4-(hydroxymethyl)-phenyl]-propionamide], the Ki was 3 nM.
`CN(C)c1cccc(-n2nc(C(F)(F)F)cc2CNC(=O)Nc2ccc(CO)c(F)c2)c1` [A86, 1-[[2-(3-Dimethylamino-phenyl)-5-(trifluoromethyl)-2H-pyrazol-3-yl]-methyl]-3-[3-fluoro-4-(hydroxymethyl)-phenyl]-urea]: the Ki stood at 25 nM.
Still for that read-out and setting: then `COc1cccc(-n2nc(C(F)(F)F)cc2CNC(=O)C(C)c2ccc(C3(O)CC3)c(F)c2)c1` (stereo not shown) [A103, 2-[3-Fluoro-4-(1-hydroxy-cyclopropyl)-phenyl]-N-[[2-(3-methoxyphenyl)-5-(trifluoromethyl)-2H-pyrazol-3-yl]-methyl]-propionamide], with 22 nM; and `CCOc1cc(C)cc(-n2nc(C(F)(F)F)cc2CNC(=O)Nc2ccc(CO)c(F)c2)c1` [A93, 1-[[2-(3-Ethoxy-5-methyl-phenyl)-5-(trifluoromethyl)-2H-pyrazol-3-yl]-methyl]-3-[3-fluoro-4-(hydroxymethyl)-phenyl]-urea], with 18 nM.
For the compound `COc1c(F)cc(CC(=O)NCc2cc(C(C)(C)C)nn2-c2ccc(F)c(Cl)c2)cc1F` [A6, N-[[5-tert-Butyl-2-(3-chloro-4-fluoro-phenyl)-2H-pyrazol-3-yl]-methyl]-2-(3,5-difluoro-4-methoxy-phenyl)-acetamide], the Ki was found to be 14 nM.
Regarding `CC(C(=O)NCc1cc(C(F)(F)F)nn1-c1ccc(F)c(Cl)c1)c1ccc(CO)c(F)c1` (stereo not shown) [A42, N-[[2-(3-Chloro-4-fluoro-phenyl)-5-(trifluoromethyl)-2H-pyrazol-3-yl]-methyl]-2-[3-fluoro-4-(hydroxymethyl)-phenyl]-propionamide], the Ki was 3 nM.
Regarding `CC(C(=O)NCc1cc(C(F)(F)F)nn1-c1ccc(F)cc1)c1ccc(CO)c(F)c1` (stereo not shown) [A46, 2-[3-Fluoro-4-(hydroxymethyl)-phenyl]-N-[[2-(4-fluorophenyl)-5-(trifluoromethyl)-2H-pyrazol-3-yl]-methyl]-propionamide], the Ki stood at 46 nM.
With `CC(C)(C)c1cc(CNC(=O)Nc2ccc(C3(O)COC3)c(F)c2)n(-c2cccc(Cl)c2)n1` [A109, 1-[[5-tert-Butyl-2-(3-chlorophenyl)-2H-pyrazol-3-yl]-methyl]-3-[3-fluoro-4-(3-hydroxy-oxetan-3-yl)-phenyl]-urea], the Ki amounted to 43 nM.
Take `CC(C)c1cccc(-n2nc(C(F)(F)F)cc2CNC(=O)Nc2ccc(CO)c(F)c2)c1` [A82, 1-[3-Fluoro-4-(hydroxymethyl)-phenyl]-3-[[2-(3-isopropyl-phenyl)-5-(trifluoromethyl)-2H-pyrazol-3-yl]-methyl]-urea]: the Ki came out at 2 nM.
`Cc1cccc(-n2nc(C(F)(F)F)cc2CNC(=O)Nc2ccc(CO)c(F)c2)c1C` [A72, 1-[[2-(2,3-Dimethyl-phenyl)-5-(trifluoromethyl)-2H-pyrazol-3-yl]-methyl]-3-[3-fluoro-4-(hydroxymethyl)-phenyl]-urea]: the Ki worked out at 14 nM.
Regarding `COc1c(Cl)cccc1-n1nc(C(F)(F)F)cc1CNC(=O)Nc1ccc(CO)c(F)c1` [A90, 1-[[2-(3-Chloro-2-methoxy-phenyl)-5-(trifluoromethyl)-2H-pyrazol-3-yl]-methyl]-3-[3-fluoro-4-(hydroxymethyl)-phenyl]-urea], the Ki stood at 27 nM.
Take `COc1cccc(-n2nc(C(F)(F)F)cc2CNC(=O)Nc2ccc(CO)c(F)c2)c1` [A67, 1-[3-Fluoro-4-(hydroxymethyl)-phenyl]-3-[[2-(3-methoxyphenyl)-5-(trifluoromethyl)-2H-pyrazol-3-yl]-methyl]-urea]: the Ki amounted to 43 nM.
In the case of `O=C(NCc1cc(C(F)(F)F)nn1-c1ccc(F)c(Cl)c1)Nc1ccc(COCCO)c(F)c1` [A130, 1-[[2-(3-Chloro-4-fluoro-phenyl)-5-(trifluoromethyl)-2H-pyrazol-3-yl]-methyl]-3-[3-fluoro-4-(2-hydroxy-ethoxy-methyl)-phenyl]-urea], the Ki was determined as 47 nM.
Turning to `COc1c(F)cc(CC(=O)NCc2cc(C(F)(F)F)nn2-c2cccc(Cl)c2)cc1F` [A2, N-[[2-(3-Chlorophenyl)-5-(trifluoromethyl)-2H-pyrazol-3-yl]-methyl]-2-(3,5-difluoro-4-methoxy-phenyl)-acetamide], the Ki was found to be 33 nM.
Take `Cc1cc(C)cc(-n2nc(C(F)(F)F)cc2CNC(=O)Nc2ccc(CO)c(F)c2)c1` [A73, 1-[[2-(3,5-Dimethyl-phenyl)-5-(trifluoromethyl)-2H-pyrazol-3-yl]-methyl]-3-[3-fluoro-4-(hydroxymethyl)-phenyl]-urea]: the Ki was 27 nM.
For the compound `CC(C(=O)NCc1cc(C(F)(F)F)nn1-c1cccc(Cl)c1)c1cc(F)c(CO)c(F)c1` (stereo not shown) [A52, N-[[2-(3-Chlorophenyl)-5-(trifluoromethyl)-2H-pyrazol-3-yl]-methyl]-2-[3,5-difluoro-4-(hydroxymethyl)-phenyl]-propionamide], the Ki came out at 140 nM.
The same measure, in the same setting: as for `COCCOCc1ccc(NC(=O)NCc2cc(C(F)(F)F)nn2-c2cccc(Cl)c2)cc1F` [A128, 1-[[2-(3-Chlorophenyl)-5-(trifluoromethyl)-2H-pyrazol-3-yl]-methyl]-3-[3-fluoro-4-(2-methoxy-ethoxy-methyl)-phenyl]-urea], the figure is 67 nM.
On to `COCCOCc1ccc(C(C)C(=O)NCc2cc(C(F)(F)F)nn2-c2cccc(Cl)c2)cc1F` (stereo not shown) [A111, N-[[2-(3-Chlorophenyl)-5-(trifluoromethyl)-2H-pyrazol-3-yl]-methyl]-2-[3-fluoro-4-(2-methoxy-ethoxy-methyl)-phenyl]-propionamide], for which the Ki was determined as 38 nM.
In the case of `O=C(NCc1cc(C(F)(F)F)nn1-c1cccc(Cl)c1)Nc1ccc(COCCO)c(F)c1` [A127, 1-[[2-(3-Chlorophenyl)-5-(trifluoromethyl)-2H-pyrazol-3-yl]-methyl]-3-[3-fluoro-4-(2-hydroxy-ethoxy-methyl)-phenyl]-urea], the Ki was determined as 40 nM.
As to `CC(C(=O)NCc1cc(C(C)(C)C)nn1-c1cccc(F)c1)c1ccc(COCCO)c(F)c1` (stereo not shown) [A116, N-[[5-tert-Butyl-2-(3-fluorophenyl)-2H-pyrazol-3-yl]-methyl]-2-[3-fluoro-4-(2-hydroxy-ethoxy-methyl)-phenyl]-propionamide], the Ki is 18 nM.
Take `Cc1cccc(-n2nc(C(F)(F)F)cc2CNC(=O)Nc2ccc(CO)c(F)c2)c1F` [A76, 1-[3-Fluoro-4-(hydroxymethyl)-phenyl]-3-[[2-(2-fluoro-3-methyl-phenyl)-5-(trifluoromethyl)-2H-pyrazol-3-yl]-methyl]-urea]: the Ki came out at 41 nM.
For the compound `Cc1cccc(-n2nc(C(F)(F)F)cc2CNC(=O)C(C)c2ccc(COCCO)c(F)c2)c1` (stereo not shown) [A123, 2-[3-Fluoro-4-(2-hydroxy-ethoxy-methyl)-phenyl]-N-[[2-(m-tolyl)-5-(trifluoromethyl)-2H-pyrazol-3-yl]-methyl]-propionamide], the inhibitory constant (Ki) worked out at 24 nM.
Regarding `O=C(NCc1cc(C(F)(F)F)nn1-c1cccc(Cl)c1)Nc1ccc(CO)c(F)c1` [A59, 1-[[2-(3-Chlorophenyl)-5-(trifluoromethyl)-2H-pyrazol-3-yl]-methyl]-3-[3-fluoro-4-(hydroxymethyl)-phenyl]-urea], the Ki was found to be 7 nM.
On to `COc1c(F)cc(C(C)C(=O)NCc2cc(C(C)(C)C)nn2-c2cccc(Cl)c2)cc1F` (stereo not shown) [A4, N-[[5-tert-Butyl-2-(3-chlorophenyl)-2H-pyrazol-3-yl]-methyl]-2-(3,5-difluoro-4-methoxy-phenyl)-propionamide], for which the Ki was found to be 2 nM.
